Assay results: patent US11447445B2, “Diabetes and metabolic syndrome treatment with a novel dual modulator of soluble epoxide hydrolase and peroxisome proliferator-activated receptors” (priority 2015, dated 2022)
Like-named read-outs stand apart in the source and are kept apart here.

Tests used:
recombinant human sEH = molecular target: T1, recombinant human sEH (Homo sapiens, UniProt P34913); test: biochemical; settings: read-out: IC50 sEH (converted)
T1 sequence (P34913 1-555): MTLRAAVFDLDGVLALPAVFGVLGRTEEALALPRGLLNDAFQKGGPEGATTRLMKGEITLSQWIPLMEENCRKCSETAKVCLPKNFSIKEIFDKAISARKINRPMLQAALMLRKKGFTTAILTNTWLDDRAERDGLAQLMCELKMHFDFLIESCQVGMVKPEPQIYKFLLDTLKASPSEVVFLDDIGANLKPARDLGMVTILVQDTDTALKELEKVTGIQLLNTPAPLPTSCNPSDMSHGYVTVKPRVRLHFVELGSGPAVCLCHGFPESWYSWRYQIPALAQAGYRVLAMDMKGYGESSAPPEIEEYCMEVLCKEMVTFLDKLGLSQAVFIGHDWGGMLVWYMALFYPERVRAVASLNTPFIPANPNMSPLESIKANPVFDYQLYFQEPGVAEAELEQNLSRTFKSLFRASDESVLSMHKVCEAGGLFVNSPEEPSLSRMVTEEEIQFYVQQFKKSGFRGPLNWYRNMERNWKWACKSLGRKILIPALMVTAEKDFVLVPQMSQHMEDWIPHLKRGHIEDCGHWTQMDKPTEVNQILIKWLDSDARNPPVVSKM

PPARδ = molecular target: T2, PPARδ (Homo sapiens, UniProt Q03181); test: PPAR transactivation assay in COS-7 cells (Gal4-hPPAR-LBD, luciferase); format: cell-based
T2 construct: expressed in transfected cells; host or cells: COS-7
Experimental: (§1) COS-7 cells (PPAR) were grown in DMEM high glucose, supplemented with 10% fetal calf serum (FCS), 1% sodium pyruvate (SP) and 1% penicillin/streptomycin (PS) at 37° C. and 5% CO2. Used plasmids for PPAR transactivation assay are shown under supporting informations.
(§2) The day before transfection, COS-7 cells were seeded in 96-well plates with a density of 30,000 cells per well. Transient transfection was carried out using Lipofectamine LTX reagent (Invitrogen, Carlsbad, Calif., USA) according to the manufacturer's protocol with pFR-Luc (Stratagene), pRL-SV40 (Promega) and the Ga14-fusion receptor plasmids (pFA-CMV-hPPAR-LBD) of the respective PPAR subtype. 5 h after transfection, medium was changed to DMEM without phenol red and 10% FCS, supplemented with 1% SP, 1% PS and 1% L-glutamine, now additionally containing 0.1% DMSO and the respective test compound or 0.1% DMSO alone as untreated control. Each concentration was tested in triplicate wells and each experiment was repeated independently at least three times. Following overnight incubation with the test compounds, cells were assayed for luciferase activity using Dual-Glo™ Luciferase Assay System (Promega) according to the manufacturer's protocol. Luminescence was measured with an Infinite m200 luminometer (Tecan Deutschland GmbH). Each concentration of the compounds was tested in triplicate wells. Normalization for transfection efficacy and cell growth was done by division of the firefly luciferase data by renilla luciferase data resulting in relative light units. Activation factors were obtained by dividing by DMSO control. […] All compounds were evaluated by comparison of the achieved maximum effect to that of the reference compound (pioglitazone for PPARγ, GW7647 for PPARa, and L165041 for PPARS each with 1 μM). Data are expressed as mean±SE; n≥3.
(§3) The Gal4-fusion receptor plasmids pFA-CMV-PPARa-LBD, pFA-CMV-PPARS-LBD and pFA-CMV-PPARγ-LBD containing the hinge region and ligand binding domain (LBD) for each of the PPAR subtypes, respectively, were constructed by integrating cDNA fragments obtained from PCR amplification of human monocytes into the SmaI/XbaI cleavage site of the pFA-CMV vector (Stratagene, La Jolla, Calif., USA) and have already been published. […] Frame and sequence of the fusion receptors were verified by sequencing. pFR-Luc (Stratagene) was used as reporter plasmid and pRL-SV40 (Promega) for normalization of transfection efficacy and cell growth.

PPARα = molecular target: T3, PPARα (Homo sapiens, UniProt Q07869); format: cell-based; settings: for PPARα activation @10 μM: at 10 μM
T3 construct: expressed in transfected cells; host or cells: COS-7
Experimental: as §1, §2, §3

T3 sequence (Q07869 239-466): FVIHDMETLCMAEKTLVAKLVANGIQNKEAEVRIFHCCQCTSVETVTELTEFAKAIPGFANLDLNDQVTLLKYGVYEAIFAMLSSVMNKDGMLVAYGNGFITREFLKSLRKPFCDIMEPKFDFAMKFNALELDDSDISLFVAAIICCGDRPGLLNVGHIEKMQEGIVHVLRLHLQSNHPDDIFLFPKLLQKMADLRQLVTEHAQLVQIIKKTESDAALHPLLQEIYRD
T2 sequence (Q03181 211-439): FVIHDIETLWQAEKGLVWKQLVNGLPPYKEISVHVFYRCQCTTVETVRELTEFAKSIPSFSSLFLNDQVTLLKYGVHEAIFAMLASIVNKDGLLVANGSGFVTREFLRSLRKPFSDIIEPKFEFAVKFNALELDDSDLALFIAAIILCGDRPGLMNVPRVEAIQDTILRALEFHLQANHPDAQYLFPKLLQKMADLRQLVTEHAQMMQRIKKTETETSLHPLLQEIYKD

## CC/C(=C\c1ccc(C(=O)NCc2ccccc2)cc1)C(=O)O [Compound 2d, (E)-4-[N-Benzylbenzamide]-alpha-ethylcinnamic acid]
Recombinant human sEH
  IC50: 9300 nM

## CCOC(=O)/C(=C/c1ccc(C(=O)NCc2ccc(C(F)(F)F)cc2)cc1)CC [Compound 8a, Ethyl (E)-4-[N-((4-trifluoromethyl)benzyl)benzamide]-alpha-ethylcinnamate]
Recombinant human sEH
  IC50: 550 ± 60 nM

## CCOC(=O)C(CC)Cc1ccc(C(=O)NCc2ccccc2Cl)cc1 (centres unmarked) [Compound 4b, Ethyl 2-ethyl 3-[4-(N-((2-chloro)benzyl)benzamide)]propanoate]
PPARδ; i.a. = inactive
  EC50 PPARδ: n.t. i.a. i.a. n.t.
PPARα; i.a. = inactive
  EC50 PPARα: n.t. i.a. i.a. n.t.

## CC/C(=C\c1ccc(C(=O)NCc2ccc(F)cc2C(F)(F)F)cc1)C(=O)O [Compound 13d, (E)-4-[N-((4-Fluoro(2-trifluoromethyl))benzyl)benzamide]-alpha-ethylcinnamic acid]
Recombinant human sEH
  IC50: 1200 nM

## CCOC(=O)C(CC)Cc1ccc(C(=O)NCc2ccc(Oc3ccccc3)cc2)cc1 (centres unmarked) [Compound 12b, Ethyl 2-ethyl 3-[4-(N-((4-phenoxy)benzyl)benzamide)]propanoate]
PPARδ; i.a. = inactive
  EC50 PPARδ: i.a.
PPARα; compared to GW7647 1 μM
  Emax-% PPARα (maximum activation in percent): 110%

## CC/C(=C\c1ccc(C(=O)NCc2ccccc2Cl)cc1)C(=O)O [Compound 4d, (E)-4-[N-((2-Chloro)benzyl)benzamide]-alpha-ethylcinnamic acid]
Recombinant human sEH
  IC50: 2800 nM

## CCC(Cc1ccc(C(=O)NCc2ccc(OC(F)(F)F)cc2)cc1)C(=O)O (centres unmarked) [Compound 9c, 2-Ethyl 3-[4-(N-((4-trifluoromethoxy)benzyl)benzamide)]propionic acid]
PPARδ; i.a. = inactive
  EC50 PPARδ: n.t. i.a. i.a. n.t.

## CCC(Cc1ccc(C(=O)NCc2ccc(F)cc2C(F)(F)F)cc1)C(=O)O (centres unmarked) [Compound 13c, 2-Ethyl 3-[4-(N-(4-fluoro(2-trifluoromethyl)benzyl)benzamide)]propionic acid]
PPARδ; i.a. = inactive
  EC50 PPARδ: n.t. i.a. i.a. n.t.
PPARα; i.a. = inactive
  EC50 PPARα: n.t. i.a. i.a. n.t.

## CC/C(=C\c1ccc(C(=O)NCc2ccccc2OC(F)(F)F)cc1)C(=O)O [Compound 6d, (E)-4-[N-((2-Trifluoromethoxy)benzyl)benzamide]-alpha-ethylcinnamic acid]
Recombinant human sEH
  IC50: 900 nM

## CC/C(=C\c1cccc(C(=O)NCc2ccccc2C(F)(F)F)c1)C(=O)O [Compound 15d, (E)-3-[N-((2-Trifluoromethyl)benzyl)benzamide]-alpha-ethylcinnamic acid]
Recombinant human sEH
  IC50: 400 ± 100 nM

## CC/C(=C\c1ccc(C(=O)NCc2ccc(OC)cc2)cc1)C(=O)O [Compound 10d, (E)-4-[N-((4-Methoxy)benzyl)benzamide]-alpha-ethylcinnamic acid]
Recombinant human sEH
  IC50: 13000 nM

## CCOC(=O)/C(=C/c1ccc(C(=O)NCc2ccc(OC)cc2C(F)(F)F)cc1)CC [Compound 14a]
Recombinant human sEH
  IC50: 50 ± 9 nM

## CCOC(=O)C(CC)Cc1ccc(C(=O)NCc2ccc(C(F)(F)F)cc2)cc1 (centres unmarked) [Compound 8b, Ethyl 2-ethyl 3-[4-(N-((4-trifluoromethyl)benzyl)benzamide)]propanoate]
PPARδ; i.a. = inactive
  EC50 PPARδ: n.t. i.a. i.a. n.t.
PPARα; compared to GW7647 1 μM
  PPARα activation @10 μM: 22%

## CCOC(=O)/C(=C/c1cccc(C(=O)NCc2ccccc2C(F)(F)F)c1)CC [Compound 15a, Ethyl (E)-3-[N-((2-trifluoromethyl)benzyl)benzamide]-alpha-ethylcinnamate]
Recombinant human sEH
  IC50: 40 ± 6 nM

## CCOC(=O)/C(=C/c1ccc(C(=O)NCc2ccc(F)cc2)cc1)CC [Compound 7a, Ethyl (E)-4-[N-((4-fluoro)benzyl)benzamide]-alpha-ethylcinnamate]
Recombinant human sEH
  IC50: 62 ± 3 nM

## CCOC(=O)/C(=C/c1ccc(C(=O)NCc2ccc(OC(F)(F)F)cc2)cc1)CC [Compound 9a, Ethyl (E)-4-[N-((4-trifluoromethoxy)benzyl)benzamide]-alpha-ethylcinnamate]
Recombinant human sEH
  IC50: 880 ± 100 nM

## CC/C(=C\c1ccc(C(=O)NCc2ccc(F)cc2)cc1)C(=O)O [Compound 7d, (E)-4-[N-((4-Fluoro)benzyl)benzamide]-alpha-ethylcinnamic acid]
Recombinant human sEH
  IC50: 6700 nM

## CCC(Cc1ccc(C(=O)NCc2ccc(C(F)(F)F)cc2)cc1)C(=O)O (centres unmarked) [Compound 8c, 2-Ethyl 3-[4-(N-((4-trifluoromethyl)benzyl)benzamide)]propionic acid]
PPARδ; i.a. = inactive
  EC50 PPARδ: n.t. i.a. i.a. n.t.

## CCOC(=O)/C(=C/c1ccc(C(=O)NCc2ccccc2Cl)cc1)CC [Compound 4a, Ethyl (E)-4-[N-((2-chloro)benzyl)benzamide]-alpha-ethylcinnamate]
Recombinant human sEH
  IC50: 410 ± 140 nM

## CC/C(=C\c1ccc(C(=O)NCc2ccc(OC)cc2C(F)(F)F)cc1)C(=O)O [Compound 14d]
Recombinant human sEH
  IC50: 400 nM

## CC/C(=C\c1ccc(C(=O)NCc2ccc(Oc3ccccc3)cc2)cc1)C(=O)O [Compound 12d, (E)-4-[N-((4-Phenoxy)benzyl)benzamide]-alpha-ethylcinnamic acid]
Recombinant human sEH
  IC50: 800 nM

## CCOC(=O)C(CC)Cc1ccc(C(=O)NCc2ccccc2C)cc1 (centres unmarked) [Compound 3b, Ethyl 2-ethyl 3-[4-(N-((2-methyl)benzyl)benzamide)]propanoate]
PPARδ; i.a. = inactive
  EC50 PPARδ: n.t. i.a. i.a. n.t.
PPARα; compared to GW7647 1 μM
  PPARα activation @10 μM: 15%

## CCOC(=O)C(CC)Cc1ccc(C(=O)NCc2ccc(F)cc2)cc1 (centres unmarked) [Compound 7b, Ethyl 2-ethyl 3-[4-(N-((4-fluoro)benzyl)benzamide)]propanoate]
PPARδ
  EC50 PPARδ: n.t. i.a. i.a. n.t.
PPARα
  EC50 PPARα: n.t. i.a. i.a. n.t.

## CC/C(=C\c1ccc(C(=O)NCc2ccccc2Br)cc1)C(=O)O [Compound 5d, (E)-4-[N-((2-Bromo)benzyl)benzamide]-alpha-ethylcinnamic acid]
Recombinant human sEH
  IC50: 2400 nM

## CC/C(=C\c1ccc(C(=O)NCc2ccccc2C)cc1)C(=O)O [Compound 3d, (E)-4-[N-((2-Methyl)benzyl)benzamide]-alpha-ethylcinnamic acid]
Recombinant human sEH
  IC50: 10000 nM

## CCOC(=O)C(CC)Cc1ccc(C(=O)NCc2ccccc2)cc1 (centres unmarked) [Compound 2b, Ethyl 2-ethyl 3-[4-(N-benzylbenzamide)]propanoate]
PPARδ
  EC50 PPARδ: n.t. i.a. i.a. n.t.
PPARα
  EC50 PPARα: n.t. i.a. i.a. n.t.

## CCOC(=O)/C(=C/c1ccc(C(=O)NCc2ccccc2C)cc1)CC [Compound 3a, Ethyl (E)-4-[N-((2-methyl)benzyl)benzamide]-alpha-ethylcinnamate]
Recombinant human sEH
  IC50: 760 ± 50 nM

## CC/C(=C\c1ccc(C(=O)NCc2ccc(OC(F)(F)F)cc2)cc1)C(=O)O [Compound 9d, (E)-4-[N-((4-Trifluoromethoxy)benzyl)benzamide]-alpha-ethylcinnamic acid]
Recombinant human sEH
  IC50: 1600 nM

## CCOC(=O)/C(=C/c1ccc(C(=O)NCc2ccccc2Br)cc1)CC [Compound 5a, Ethyl (E)-4-[N-((2-bromo)benzyl)benzamide]-alpha-ethylcinnamate]
Recombinant human sEH
  IC50: 300 ± 80 nM

## CCOC(=O)C(CC)Cc1ccc(C(=O)NCc2ccc(F)cc2C(F)(F)F)cc1 (centres unmarked) [Compound 13b, Ethyl 2-ethyl 3-[4-(N-(4-fluoro(2-trifluoromethyl)benzyl)benzamide)]propanoate]
PPARδ; i.a. = inactive
  EC50 PPARδ: n.t. i.a. i.a. n.t.
PPARα; i.a. = inactive
  EC50 PPARα: n.t. i.a. i.a. n.t.

## CCOC(=O)/C(=C/c1ccc(C(=O)NCc2ccc(F)cc2C(F)(F)F)cc1)CC [Compound 13a]
Recombinant human sEH
  IC50: 100 ± 10 nM

## CCOC(=O)/C(=C/c1ccc(C(=O)NCc2ccc(Oc3ccccc3)cc2)cc1)CC [Compound 12a, Ethyl (E)-4-[N-((4-phenoxy)benzyl)benzamide]-alpha-ethylcinnamate]
Recombinant human sEH
  IC50: 1400 ± 60 nM

## CCOC(=O)C(CC)Cc1ccc(C(=O)NCc2ccc(OC(F)(F)F)cc2)cc1 (centres unmarked) [Compound 9b, Ethyl 2-ethyl 3-[4-(N-((4-trifluoromethoxy)benzyl)benzamide)]propanoate]
PPARδ; i.a. = inactive
  EC50 PPARδ: n.t. i.a. i.a. n.t.
